# From patent US4612185A, “Methods and compositions for enhancing magnetic resonance imaging” (Mallinckrodt, Inc., priority 1984, dated 1986)
# What was measured:
# mice = test: Acute intravenous toxicity in mice, 7-day observation, LD50 by Litchfield and Wilcoxon; assay type: in vivo, mouse (Swiss ICR CD-1); details: for MORTALITIES/NUMBER TREATED / AVERAGE SURVIVOR WEEKLY BODY WEIGHT CHANGE: single intravenous; for MORTALITIES/NUMBER TREATED: 7 days; for AVERAGE SURVIVOR WEEKLY BODY WEIGHT CHANGE: survivors
# Experimental: Sodium [2-(trifluoromethyl) benzamido] acetate was prepared as a 20% w/v solution in sterile water for injection and the pH was adjusted to 7.0 using 0.1 N HCl.
# A total of 14 mice (7 male, 24.6-30.0 g; 7 females, 18.6-26.0 g; Swiss ICR CD-1, Charles River) were used. Animals were housed according to standard operating procedures and marked for identification with picric acid.
# Groups of 2-3 mice received single intravenous injections of sodium [2-(trifluoromethyl)benzamido]acetate according to the followinq schedule:
# Measured single doses were injected into the lateral tail vein at a rate of 1 ml/min. The animals were observed immediately after dosing and during the 7-day observation period for pharmacotoxic reactions. Recording of terminal body weights and general necrospy of the thoracic and abdominal organs was performed after 7 days. An LD50 value was calculated using the method of Litchfield and Wilcoxon (J. Pharmacol. Exp. Ther. 96:99,1949).
# [1] = test system: liver, heart, kidney, skeletal muscle, spleen, blood and urine samples; test: Fluorine analysis of rabbit tissue, blood and urine samples by MR spectroscopy; assay type: in vivo; details: 4 mmol F/kg intravenous, conclusion of experiment
# Excerpt: (§1) An anesthetized rabbit was placed in a 12 inch bore, 1.9 Tesla MRI magnet. An RF coil ([…], I.D., 4 cm, O.D.) was placed on the surface of the liver or a kidney which were excised surgically. Fluorine spectra were obtained following 4 mmol F/kg intravenous doses of a solution of sodium [2-(trifluoromethyl)benzamido]acetate (20%, w/v, 2.2 M F, of the compound).
# At the conclusion of the experiment, the rabbit was killed and liver, heart, kidney, skeletal muscle, spleen, blood and urine samples were analyzed for fluorine by MR spectroscopy.
# liver or kidney = test: In vivo fluorine (19F) MR spectra of liver and kidney in anesthetized rabbit; details: 4 mmol F/kg intravenous, 1.9 Tesla
# Excerpt: as §1
structure (smiles),measurement,setting,value
O=C([O-])CNC(=O)c1ccccc1C(F)(F)F.[Na+] [sodium [2-(trifluoromethyl)benzamido]acetate],MORTALITIES/NUMBER TREATED,mice; 1000 mg/kg,0/2
same,AVERAGE SURVIVOR WEEKLY BODY WEIGHT CHANGE,mice; 1000 mg/kg,0.1 g
same,MORTALITIES/NUMBER TREATED,mice; 2000 mg/kg,0/2
same,AVERAGE SURVIVOR WEEKLY BODY WEIGHT CHANGE,mice; 2000 mg/kg,2.2 g
same,MORTALITIES/NUMBER TREATED,mice; 4000 mg/kg,0/2
same,AVERAGE SURVIVOR WEEKLY BODY WEIGHT CHANGE,mice; 4000 mg/kg,1.8 g
same,MORTALITIES/NUMBER TREATED,mice; 6000 mg/kg,1/3
same,AVERAGE SURVIVOR WEEKLY BODY WEIGHT CHANGE,mice; 6000 mg/kg,1.0 g
same,MORTALITIES/NUMBER TREATED,mice; 7000 mg/kg,2/3
same,AVERAGE SURVIVOR WEEKLY BODY WEIGHT CHANGE,mice; 7000 mg/kg,2.7 g
same,MORTALITIES/NUMBER TREATED,mice; 8000 mg/kg,2/2
same,reactions preceding death,"mice; intravenous, all deaths",mild convulsions
same,time of deaths after treatment,"mice; intravenous, all deaths",≤ 10 min
same,time after treatment within which all survivors appeared normal,"mice; intravenous, all survivors",≤ 5 h
same,toxic reactions (hyperactivity),"mice; intravenous, doses=2000 mg/kg (so in the source)",mild hyperactivity
same,toxic reactions (hypoactivity),"mice; intravenous, doses=4000 mg/kg (so in the source)",dose-related hypoactivity
same,"body weight of one survivor, week after treatment","mice; intravenous, one survivor dosed with 1000 mg",body weight loss
same,body weight of all other survivors,"mice; intravenous, one week",weight gains
same,estimated mouse intravenous LD50,"mice; mouse, intravenous, compound dose",6500 mg/kg
same,intravenous toxicity profile,mice; summary statement of toxicity studies,extremely good intravenous toxicity profile
same,necropsy findings,"mice; thoracic and abdominal organs, following one week observation",No abnormalities were observed
same,"fluorine concentrations in kidney, urine and blood",[1],highest concentrations of fluorine
same,fluorine in other tissue specimens,"[1]; specimens other than kidney, urine, blood",minimal fluorine detected
same,fluorine spectra in liver and kidney,liver or kidney; both liver and kidney,only a single peak which was the same as the spectrum from a solution of sodium [2-(trifluoromethyl)benzamido]acetate
same,fluorine signal intensity in kidney,liver or kidney; kidney,peaked very rapidly in the kidney and remained elevated for several minutes
same,fluorine signal intensity in liver,liver or kidney; liver versus kidney,less than that for the kidney and took a longer time to peak
